Measured values reported in US8236769B2, “Agent for improving insulin resistance” (Morinaga Milk Industry Co., Ltd., priority 2005, dated 2012).

Legend:
[1] = tested on: ZDF (Zucker Diabetic Fatty) rats; conditions: serum
Protocol: 3-O-β-D-glucopyranosyl-4-methylergost-7-en-3-ol produced in Preparation Example 1 was dissolved in DMSO, and the concentration was adjusted to 15 μg/ml with distilled water to thereby prepare Test Sample. In this case, the final DMSO concentration was adjusted to 0.2%. Furthermore, a solution without the test samples was prepared as a negative sample.
6-week-old male ZDF rats (purchased from Charles River Laboratories, Inc., USA) were preliminarily fed with a high-fat diet (Research Diet, Inc.) for 1 month. These rats were divided into groups, each consisting of 6 rats. Each of the groups of rats was orally administered with 1 ml per 400 g of body weight (37.5 μg/kg of body weight) of the Test Sample or the negative sample once a day everyday with a sonde. On the 45th day from the initiation of the administration of the samples, blood was collected from the rats under fasting, and the level of the free fatty acid in serum were measured by using NEFA C-test Wako (Wako Pure Chemical Industries, Ltd.).

[2] = tested on: ZDF (Zucker Diabetic Fatty) rats; assay: Insulin tolerance test in ZDF rats; assay type: in vivo, rat; conditions: 35th day; 37.5 μg/kg orally once a day; human insulin 10 U/Kg i.p. after 4 hours fasting; 15 to 60 minutes after insulin; FIG. 1
Protocol: In Example 3, the same Test Sample and the negative sample as those prepared in Examples 1 and 2 were used.
The semice were divided into groups, each consisting of 6 rats. […] In the present example, the insulin tolerance test was performed in such a manner that: the rats were fasted for 4 hours, and were then intraperitoneally administered with 10 U/Kg of body weight of a human insulin (Eli Lily and Company); and changes with time in blood glucose level were measured from the initiation of the administration of the insulin to after 60 minutes later.

[3] = tested on: TNF-α; assay: Production quantity of TNF-α of epididymal adipose tissue from treated ZDF rats (culture supernatant, ELISA); assay type: in vivo, rat; conditions: 45th day
Protocol: (§1) In Example 2, the same Test Sample and the negative sample as those prepared in Example 1 were used.
(§2) After 1 hour of the culture, culture supernatants were collected, and concentrations of TNF-α and MCP-1 in the culture supernatants were measured by ELISA method (Biosource).

[4] = WO 2006/035525; cited from earlier work
[5] = tested on: MCP-1; assay: Production quantity of MCP-1 of epididymal adipose tissue from treated ZDF rats (culture supernatant, ELISA); assay type: in vivo, rat; conditions: 45th day
Protocol: as §1, §2

[6] = adipose tissue, Tukey-Kramer's test
[7] = culture supernatant of epididymal fat tissue after 1 hour at 37° C., 37.5 μg/kg orally once a day

With `CC1C(O[C@@H]2O[C@H](CO)[C@@H](O)[C@H](O)[C@H]2O)CC[C@@]2(C)C1CC=C1[C@@H]3CC[C@H]([C@H](C)CC[C@H](C)C(C)C)[C@@]3(C)CC[C@@H]12` (stereo partly drawn) [Test Sample, 3-O-β-D-glucopyranosyl-4-methylergost-7-en-3-ol] the “free fatty acid levels compared with the group administered with the negative sample” value ([1]; 45th day, 37.5 μg/kg orally once a day, decreased to this % of negative sample group) was 53%, the Free fatty acid ([1]; fasting, 45th day of administration, 37.5 μg/kg of body weight orally once a day, male ZDF rats on high-fat diet) was 1.948 ± 0.648 mEq/l and the “blood glucose level in insulin tolerance test compared with negative sample group” value [2] was “lower blood glucose levels”. The “inhibitory effect on the production of TNF-α compared with negative sample group” value [3, 6] was “significant inhibitory effects”, the TNF-α [3, 7] was 117.4 ± 47.9 pg/mL and the “effect on hemoglobin Alc level” value [4] was “decreasing hemoglobin Alc level”. The effect on hyperglycemia [4] was “improving hyperglycemia”, the “inhibitory effect on the production of MCP-1 compared with negative sample group” value [5, 6] was “significant inhibitory effects” and the MCP-1 [5, 7] was 23.3 ± 3.6 pg/mL.
